# According to PubChem BioAssay (NCI):
# Values joined by “and” are separate entries in the source; they are usually repeats but may differ in a detail not shown here. Equal entries are not always repeated.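 Dose response: 5 concentrations. Exposure: 48 h. Format: 96-well plates. Endpoint: linear interpolation; highest concentration if not reached. GI50 marks 50% less growth. TGI is the concentration that stops growth completely.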
# What was measured:
# Test in all cases: growth of human tumour cells (NCI), 48 h
# SW-620 colon = tested on: SW-620 colon
# RPMI-8226 leukemia = tested on: RPMI-8226 leukemia
# DU-145 prostate = tested on: DU-145 prostate
# SF-539 CNS = tested on: SF-539 CNS
# MDA-MB-435 = tested on: MDA-MB-435
# TK-10 renal = tested on: TK-10 renal
# SN12C renal = tested on: SN12C renal
# M14 melanoma = tested on: M14 melanoma
# SNB-19 CNS = tested on: SNB-19 CNS
# NCI-H460 lung = tested on: NCI-H460 lung
# UO-31 renal = tested on: UO-31 renal
Compound,TGI (SW-620 colon),TGI (RPMI-8226 leukemia),TGI (DU-145 prostate),TGI (SF-539 CNS) [µM],TGI (MDA-MB-435),TGI (TK-10 renal) [µM],TGI (SN12C renal),TGI (M14 melanoma),TGI (SNB-19 CNS),TGI (NCI-H460 lung) [µM],TGI (UO-31 renal),GI50 (SW-620 colon),GI50 (MDA-MB-435),GI50 (M14 melanoma),GI50 (SNB-19 CNS) [µM],GI50 (NCI-H460 lung),GI50 (UO-31 renal),GI50 (RPMI-8226 leukemia),GI50 (SN12C renal)
CC1=C(C(=O)c2ccccc2)C23C(=O)N(c4ccccc4)C(=O)C2=C(O)C=CC3(O)N1 (stereo not given),72.7 µM,> 100 µM,> 100 µM,> 100,> 100 µM,> 100,> 100 µM,> 100 µM,> 100 µM,> 100,37.8 µM,,,,,,,,
CCOP(=O)(OCC)C(C#N)Cc1ccco1 (stereo not given),> 10 µM,> 10 µM,> 10 µM,> 10,> 10 µM,> 10,> 10 µM,> 10 µM,> 10 µM,> 10,> 10 µM,,,,,,,,
COc1ccc(C2SCC(=O)N2NC(=O)c2ccc(NC(C)=O)cc2)cc1 (stereo not given),> 100 µM,> 100 µM,> 100 µM,> 100,> 100 µM,> 100,> 100 µM,> 100 µM,> 100 µM,> 100,> 100 µM,,,,,,,,
CCCCCCCCCCC1OC([C@@H](O)CC[C@H](O)C2CC[C@@H](CCCCCCCC(O)CC3=CC(C)OC3=O)O2)CCC1O (stereo not given in full),> 25 µM,15.4 µM,> 25 µM,> 25,5.58 µM and > 20.2 µM,> 25,> 25 µM,> 17.5 µM,> 25 µM,> 25,10.4 µM,4.37 µM,1.59 µM,4.81 µM,2.9,5.08 µM,2.66 µM,,
O=C(N/N=C1/C(=O)c2c3ccccc3cc3cccc1c23)c1ccccc1,> 100 µM,> 100 µM,> 56.4 µM,> 100,> 86.7 µM,78.5,> 100 µM,> 100 µM,> 100 µM,> 100,> 100 µM,,,,,,,,
CC1OC(OC2C(OC(=O)[C@]34CCC(C)(C)C[C@H]3C3=CC[C@@H]5[C@@]6(C)CC[C@H](OC7OC(C(=O)O)C(O)C(OC8OCC(O)C(O)C8O)C7O)C(C)(C)[C@@H]6CC[C@@]5(C)[C@]3(C)CC4)OCC(O)C2O)C(O)C(OC2OCC(O)C(O)C2O)C1OC1OCC(O)C(OC2OCC(O)C(O)C2O)C1O (stereo not given in full),29.5 µM and > 100 µM,19.8 µM and 35.3 µM,40.6 µM and 85.1 µM,68.7,20.1 µM and 32 µM,24,7.2 µM and 21.6 µM,17 µM and 34 µM,23.2 µM and 44.2 µM,> 100,4.99 µM and 21.1 µM,13.6 µM and 27.4 µM,7.32 µM and 16.7 µM,5.97 µM and 19.2 µM,,49.5 µM and > 100 µM,2.12 µM and 9 µM,5.62 µM and 16.9 µM,2.85 µM and 8.35 µM
CCCCCCCCCCCCCCCCOC[C@@H](COC(c1ccccc1)(c1ccccc1)c1ccccc1)O[P+](=S)OC (stereo not given in full),37 µM,14.7 µM,30.6 µM,9.45,5.5 µM,23.6,21.8 µM,14.5 µM,21.3 µM,5.8,30.1 µM,,,,,,,,
CCOC(=O)C(Cc1cccn1C(=O)OC(C)(C)C)[N+](=O)[O-] (stereo not given),59.2 µM,45.1 µM,70.2 µM,58.7,77.1 µM,50.3,62.9 µM,40.9 µM,75.5 µM,53.4,39.3 µM,,,,,,,,
CC(C)=CCC/C(C)=C/CC/C(C)=C/CC/C(=C/CC/C(C)=C\CC/C(C)=C/CC/C(C)=C/CC/C(C)=C/Cc1cc(O)ccc1O)CO,42.5 µM,> 100 µM,> 100 µM,2.48,> 31.8 µM,19.5,> 100 µM,4.88 µM,> 100 µM,33,21.4 µM,,,,,,,,
O=c1c(=O)c2c(Br)sc(Br)c2c1=O,31.8 µM,45.9 µM,> 100 µM,35.3,37.7 µM,47.7,31.6 µM,34.3 µM,> 100 µM,> 100,51.4 µM,,,,,,,,
COc1ccc(OC)c(NS(=O)(=O)c2ccc3nc(C)n(NS(=O)(=O)c4cc(OC)ccc4OC)c(=O)c3c2)c1,> 100 µM,> 100 µM,> 100 µM,> 100,> 100 µM,> 100,> 100 µM,> 100 µM,> 100 µM,> 100,> 100 µM,,,,,,,,
CC(C)C(/C=C/c1ccc(Cl)c(Cl)c1)=N\NC(=O)N/N=C(/C=C/c1ccc(Cl)c(Cl)c1)C(C)C,> 100 µM,> 100 µM,> 100 µM,> 100,> 100 µM,> 100,> 100 µM,> 100 µM,> 100 µM,> 100,> 100 µM,,,,,,,,
Nc1nn2c(nc(N)c3c(N)[nH]nc32)c1N=Nc1ccc(Br)cc1,> 100 µM,> 100 µM,> 100 µM,49.6,> 27.9 µM,> 100,56.7 µM,> 53.6 µM,> 92.8 µM,> 100,> 100 µM,,,,,,,,
Clc1ccc(C2Nc3ccccc3C3=NCCN32)cc1 (stereo not given),98.6 µM,42.4 µM,> 100 µM,30.6,39.8 µM,39.5,> 100 µM,30.6 µM,94.9 µM,53,> 100 µM,,,,,,,,
O=C(NCc1cccc2ccccc12)N/N=C\c1ccc(Cl)cc1,> 100 µM,> 100 µM,> 100 µM,> 100,> 100 µM,> 100,> 100 µM,> 100 µM,> 100 µM,> 100,> 100 µM,,,,,,,,
O=C(CNc1ccccc1[N+](=O)[O-])Nn1c(-c2ccccc2)nc2ccccc2c1=O,42.2 µM,89.5 µM,> 100 µM,44.5,60.1 µM,> 10,63.1 µM,38.1 µM,47.8 µM,45.1,33.7 µM,,,,,,,,
O=C1OC(=O)c2cc(S(=O)(=O)c3ccc4c(c3)C(=O)OC4=O)ccc21,> 100 µM,> 100 µM,> 100 µM,> 100,> 100 µM,> 100,> 100 µM,> 100 µM,> 100 µM,> 100,> 100 µM,,,,,,,,
